Patent publication US10710978B2, “STK4 inhibitors for treatment of hematologic malignancies” (Dana-Farber Cancer Institute, Inc., priority 2015, dated 2020)
Where two headings read alike, the source gives them in different places.

Columns and labels:
Assay in all cases: KiNativ assay
Format in all cases: binding
CaMK2d = CaMK2d (Homo sapiens (Human), UniProt Q13557); conditions: H929 live cell
Experimental: (§1) Biochemical IC50s of the compounds of the present disclosure against various kinases were measured in a KiNativ assay. Compounds were screened in duplicate at 10 μM in H929 live cell. IC50 was measured via Mass spectroscopy (MS).

CDK11, CDK8 = conditions: H929 live cell
Experimental: as §1

SNRK = SNRK (Homo sapiens (Human), UniProt Q9NRH2); conditions: H929 live cell
Experimental: as §1

CDK2 = CDK2 (Homo sapiens (Human), UniProt P24941); conditions: H929 live cell
Experimental: as §1

p38d, p38g = conditions: H929 live cell
Experimental: as §1

PKD2 = PKD2 (Homo sapiens (Human), UniProt Q9BZL6); conditions: H929 live cell
Experimental: as §1

ILK = ILK (Homo sapiens (Human), UniProt Q13418); conditions: H929 live cell
Experimental: as §1

RSK2 domain1 = RSK2 domain1 (Homo sapiens (Human), UniProt P51812); conditions: H929 live cell
Experimental: as §1

CK1a = CK1a (Homo sapiens (Human), UniProt P48729); conditions: H929 live cell
CK1a, sequence (P48729 whole entry): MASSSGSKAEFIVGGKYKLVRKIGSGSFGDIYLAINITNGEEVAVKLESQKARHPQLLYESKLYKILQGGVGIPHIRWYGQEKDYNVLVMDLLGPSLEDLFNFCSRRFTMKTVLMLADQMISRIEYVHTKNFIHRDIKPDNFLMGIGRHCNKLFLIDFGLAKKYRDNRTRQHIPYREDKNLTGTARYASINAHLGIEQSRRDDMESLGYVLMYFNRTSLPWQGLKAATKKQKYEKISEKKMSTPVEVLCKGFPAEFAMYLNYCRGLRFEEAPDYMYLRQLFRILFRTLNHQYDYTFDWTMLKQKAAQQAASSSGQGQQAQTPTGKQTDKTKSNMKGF
Experimental: as §1

SRPK2 = SRPK2 (Homo sapiens (Human), UniProt P78362); conditions: H929 live cell
SRPK2, sequence (P78362 whole entry): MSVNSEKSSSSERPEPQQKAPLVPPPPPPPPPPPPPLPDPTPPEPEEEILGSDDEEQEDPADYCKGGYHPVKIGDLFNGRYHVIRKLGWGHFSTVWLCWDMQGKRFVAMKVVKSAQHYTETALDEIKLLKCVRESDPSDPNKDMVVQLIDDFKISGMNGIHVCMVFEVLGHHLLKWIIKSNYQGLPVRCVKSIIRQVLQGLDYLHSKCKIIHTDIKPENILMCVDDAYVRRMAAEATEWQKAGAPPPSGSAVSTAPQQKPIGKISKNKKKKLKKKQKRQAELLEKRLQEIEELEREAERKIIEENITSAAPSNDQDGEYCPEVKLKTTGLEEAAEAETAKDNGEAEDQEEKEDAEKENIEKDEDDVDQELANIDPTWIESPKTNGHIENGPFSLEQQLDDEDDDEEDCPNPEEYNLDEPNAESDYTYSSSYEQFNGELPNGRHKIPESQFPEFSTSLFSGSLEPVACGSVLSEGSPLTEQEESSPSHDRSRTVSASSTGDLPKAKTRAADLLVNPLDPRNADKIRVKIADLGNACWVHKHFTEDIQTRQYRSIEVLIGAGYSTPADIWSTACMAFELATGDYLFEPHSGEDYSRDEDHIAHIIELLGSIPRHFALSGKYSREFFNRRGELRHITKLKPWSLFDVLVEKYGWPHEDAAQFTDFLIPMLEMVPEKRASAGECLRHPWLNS
Experimental: as §1

RSK1 domain1 = RSK1 domain1 (Homo sapiens (Human), UniProt Q15418); conditions: H929 live cell
Experimental: as §1

MASTL = MASTL (Homo sapiens (Human), UniProt Q96GX5); conditions: H929 live cell
Experimental: as §1

TLK2 = TLK2 (Homo sapiens (Human), UniProt Q86UE8); conditions: H929 live cell
Experimental: as §1

EphB2 = EphB2 (Homo sapiens (Human), UniProt P29323); conditions: H929 live cell
Experimental: as §1

STLK5 = STLK5 (Homo sapiens (Human), UniProt Q7RTN6); conditions: H929 live cell
STLK5, sequence (Q7RTN6 whole entry): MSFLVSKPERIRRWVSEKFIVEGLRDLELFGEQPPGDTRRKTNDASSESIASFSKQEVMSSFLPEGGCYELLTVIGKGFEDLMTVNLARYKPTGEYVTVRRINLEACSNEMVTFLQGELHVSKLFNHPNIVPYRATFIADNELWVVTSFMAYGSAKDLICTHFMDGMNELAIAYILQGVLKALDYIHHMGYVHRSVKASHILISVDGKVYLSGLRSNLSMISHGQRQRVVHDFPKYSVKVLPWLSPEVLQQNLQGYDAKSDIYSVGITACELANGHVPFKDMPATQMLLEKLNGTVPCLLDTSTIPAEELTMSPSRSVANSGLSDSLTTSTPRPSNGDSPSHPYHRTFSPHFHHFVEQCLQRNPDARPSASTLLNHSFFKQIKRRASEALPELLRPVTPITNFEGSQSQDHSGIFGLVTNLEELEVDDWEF
Experimental: as §1

HPK1 = HPK1 (Homo sapiens (Human), UniProt Q92918); conditions: H929 live cell
HPK1, sequence (Q92918 whole entry): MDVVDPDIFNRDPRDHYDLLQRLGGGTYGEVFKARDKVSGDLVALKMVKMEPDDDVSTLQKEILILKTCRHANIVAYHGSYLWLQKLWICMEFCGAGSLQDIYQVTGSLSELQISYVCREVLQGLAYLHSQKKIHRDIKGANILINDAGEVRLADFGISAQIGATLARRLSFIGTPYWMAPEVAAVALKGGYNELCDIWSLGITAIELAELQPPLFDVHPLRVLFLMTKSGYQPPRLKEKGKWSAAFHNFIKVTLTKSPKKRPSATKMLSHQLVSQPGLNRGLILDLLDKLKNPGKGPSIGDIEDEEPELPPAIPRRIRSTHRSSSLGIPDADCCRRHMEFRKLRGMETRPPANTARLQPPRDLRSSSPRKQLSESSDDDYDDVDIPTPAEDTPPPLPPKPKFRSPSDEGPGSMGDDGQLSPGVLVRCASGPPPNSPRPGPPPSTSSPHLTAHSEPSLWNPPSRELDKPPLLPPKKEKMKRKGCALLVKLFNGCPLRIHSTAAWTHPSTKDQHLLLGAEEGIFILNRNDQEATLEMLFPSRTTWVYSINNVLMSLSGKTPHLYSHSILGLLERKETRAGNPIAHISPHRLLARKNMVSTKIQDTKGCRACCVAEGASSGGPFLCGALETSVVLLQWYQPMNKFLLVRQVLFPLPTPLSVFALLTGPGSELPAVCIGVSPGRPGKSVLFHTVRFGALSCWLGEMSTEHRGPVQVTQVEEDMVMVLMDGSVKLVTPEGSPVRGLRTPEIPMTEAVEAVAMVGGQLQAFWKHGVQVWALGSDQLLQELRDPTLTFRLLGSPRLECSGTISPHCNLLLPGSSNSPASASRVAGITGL
Experimental: as §1

RSK1 domain2 = RSK1 domain2 (Homo sapiens (Human), UniProt Q15418); conditions: H929 live cell
Experimental: as §1

ACK = ACK (Homo sapiens (Human), UniProt Q07912); conditions: H929 live cell
Experimental: as §1

PLK1 = PLK1 (Homo sapiens (Human), UniProt P53350); conditions: H929 live cell
Experimental: as §1

NEK7 = NEK7 (Homo sapiens (Human), UniProt Q8TDX7); conditions: H929 live cell
Experimental: as §1

CDK5 = CDK5 (Homo sapiens (Human), UniProt Q00535); conditions: H929 live cell
CDK5, sequence (Q00535 whole entry): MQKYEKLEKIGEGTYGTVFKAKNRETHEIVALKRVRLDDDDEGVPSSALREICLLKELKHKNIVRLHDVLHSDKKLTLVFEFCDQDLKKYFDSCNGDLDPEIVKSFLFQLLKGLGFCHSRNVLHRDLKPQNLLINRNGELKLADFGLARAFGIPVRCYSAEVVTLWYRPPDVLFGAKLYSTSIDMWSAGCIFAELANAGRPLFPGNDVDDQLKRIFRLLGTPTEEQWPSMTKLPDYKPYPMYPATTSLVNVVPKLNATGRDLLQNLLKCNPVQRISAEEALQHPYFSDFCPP
Experimental: as §1

MAP2K3 = MAP2K3 (Homo sapiens (Human), UniProt P46734); conditions: H929 live cell
MAP2K3, sequence (P46734 whole entry): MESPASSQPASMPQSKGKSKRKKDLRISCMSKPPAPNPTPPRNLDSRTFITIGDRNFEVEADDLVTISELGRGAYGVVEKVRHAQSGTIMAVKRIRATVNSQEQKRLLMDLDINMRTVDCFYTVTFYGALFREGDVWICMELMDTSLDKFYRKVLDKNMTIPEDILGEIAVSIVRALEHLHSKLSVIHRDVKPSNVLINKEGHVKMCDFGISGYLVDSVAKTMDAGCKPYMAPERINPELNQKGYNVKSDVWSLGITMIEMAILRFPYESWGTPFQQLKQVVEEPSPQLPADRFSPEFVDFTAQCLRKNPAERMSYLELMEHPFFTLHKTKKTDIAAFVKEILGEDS
Experimental: as §1

NuaK2 = NuaK2 (Homo sapiens (Human), UniProt Q9H093); conditions: H929 live cell
Experimental: as §1

NEK4 = NEK4 (Homo sapiens (Human), UniProt P51957); conditions: H929 live cell
Experimental: as §1

PRPK = PRPK (Homo sapiens (Human), UniProt Q96S44); conditions: H929 live cell
Experimental: as §1

PIK3C3 = PIK3C3 (Homo sapiens (Human), UniProt Q8NEB9); conditions: H929 live cell, read-out: inhibition (10 μM)
Experimental: as §1

MPSK1 = MPSK1 (Homo sapiens (Human), UniProt O75716); conditions: H929 live cell, read-out: inhibition (10 μM)
Experimental: as §1

MAP2K6 = MAP2K6 (Homo sapiens (Human), UniProt P52564); conditions: H929 live cell
MAP2K6, sequence (P52564 whole entry): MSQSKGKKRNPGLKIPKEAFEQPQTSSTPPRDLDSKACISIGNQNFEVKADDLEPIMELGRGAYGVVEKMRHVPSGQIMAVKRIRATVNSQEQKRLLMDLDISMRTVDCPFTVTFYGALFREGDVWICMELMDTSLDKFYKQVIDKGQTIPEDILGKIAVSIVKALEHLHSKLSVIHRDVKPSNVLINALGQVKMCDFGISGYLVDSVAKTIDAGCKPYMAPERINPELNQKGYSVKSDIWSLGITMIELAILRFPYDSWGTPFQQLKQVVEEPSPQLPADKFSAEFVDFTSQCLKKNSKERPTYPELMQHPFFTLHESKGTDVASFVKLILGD
Experimental: as §1

JAK1 domain1 = JAK1 domain1 (Homo sapiens (Human), UniProt P23458); conditions: H929 live cell
JAK1 domain1, sequence (P23458 whole entry, the tested form may be a part): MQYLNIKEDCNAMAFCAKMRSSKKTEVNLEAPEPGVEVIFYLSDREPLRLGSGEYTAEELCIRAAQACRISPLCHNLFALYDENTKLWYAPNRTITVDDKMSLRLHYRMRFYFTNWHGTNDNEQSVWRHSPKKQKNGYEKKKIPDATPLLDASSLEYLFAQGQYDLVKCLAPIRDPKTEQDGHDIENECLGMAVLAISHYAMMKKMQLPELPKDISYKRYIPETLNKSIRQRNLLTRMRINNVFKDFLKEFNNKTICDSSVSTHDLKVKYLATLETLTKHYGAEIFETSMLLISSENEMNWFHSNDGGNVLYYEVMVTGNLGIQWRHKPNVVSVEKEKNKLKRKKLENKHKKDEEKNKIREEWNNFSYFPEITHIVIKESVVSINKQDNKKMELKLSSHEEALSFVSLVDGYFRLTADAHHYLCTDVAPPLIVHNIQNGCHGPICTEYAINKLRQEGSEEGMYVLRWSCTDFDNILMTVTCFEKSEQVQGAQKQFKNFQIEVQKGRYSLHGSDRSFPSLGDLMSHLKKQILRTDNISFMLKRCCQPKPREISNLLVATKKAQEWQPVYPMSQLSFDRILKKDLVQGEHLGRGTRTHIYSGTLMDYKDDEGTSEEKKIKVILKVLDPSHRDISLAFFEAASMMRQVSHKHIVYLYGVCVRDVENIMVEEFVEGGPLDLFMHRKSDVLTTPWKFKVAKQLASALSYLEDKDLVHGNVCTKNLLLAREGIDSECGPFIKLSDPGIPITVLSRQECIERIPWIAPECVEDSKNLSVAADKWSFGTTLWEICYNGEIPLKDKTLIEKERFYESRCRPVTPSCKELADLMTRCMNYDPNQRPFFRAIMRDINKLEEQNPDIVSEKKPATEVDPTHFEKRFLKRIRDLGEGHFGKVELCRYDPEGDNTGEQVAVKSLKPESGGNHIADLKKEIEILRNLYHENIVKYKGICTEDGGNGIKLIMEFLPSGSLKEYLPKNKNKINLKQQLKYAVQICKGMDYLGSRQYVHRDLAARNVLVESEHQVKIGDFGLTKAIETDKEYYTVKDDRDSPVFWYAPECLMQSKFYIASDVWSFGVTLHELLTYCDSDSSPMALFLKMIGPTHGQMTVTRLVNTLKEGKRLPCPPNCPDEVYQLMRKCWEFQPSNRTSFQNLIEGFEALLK
Experimental: as §1

MST4 = conditions: H929 live cell
Experimental: as §1

GCN2 domain2 = GCN2 domain2 (Homo sapiens (Human), UniProt Q9P2K8); conditions: H929 live cell
Experimental: as §1

PIP4K2A = PIP4K2A (Homo sapiens (Human), UniProt P48426); conditions: H929 live cell
PIP4K2A, sequence (P48426 whole entry): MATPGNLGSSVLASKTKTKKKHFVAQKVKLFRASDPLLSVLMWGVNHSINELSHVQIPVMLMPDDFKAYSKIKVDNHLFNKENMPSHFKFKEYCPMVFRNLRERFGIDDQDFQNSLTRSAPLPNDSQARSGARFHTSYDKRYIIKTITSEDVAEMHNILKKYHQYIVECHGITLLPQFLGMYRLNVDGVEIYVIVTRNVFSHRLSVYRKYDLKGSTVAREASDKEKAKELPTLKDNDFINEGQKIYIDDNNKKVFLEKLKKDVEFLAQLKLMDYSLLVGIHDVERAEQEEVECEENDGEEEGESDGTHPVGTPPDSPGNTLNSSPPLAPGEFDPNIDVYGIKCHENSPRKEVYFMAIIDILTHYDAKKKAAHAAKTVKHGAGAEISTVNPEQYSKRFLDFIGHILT
Experimental: as §1

PEK = PEK (Homo sapiens (Human), UniProt Q9NZJ5); conditions: H929 live cell
Experimental: as §1

Q: With `Nc1ncc(-c2cccc([N+](=O)[O-])c2F)cc1-c1ccc2c(c1)CCNC2=O` [Compound I-9, 6-(2-amino-5-(2-fluoro-3-nitrophenyl)pyridin-3-yl)-3,4-dihydroisoquinolin-1(2H)-one] as the compound, how does the inhibition at 10 µM (CaMK2d; read-out: % inhibition (range)) read?
A: 0%

Q: What about the inhibition at 10 µM (CaMK2d; read-out: inhibition (10 μM)) of the same compound?
A: -5.7%

Q: And the “inhibition (10 μM)” value (CDK11, CDK8)?
A: 35.5%

Q: What about the inhibition at 10 µM (SNRK; read-out: % inhibition (range)) of the same compound?
A: 35 to 50%

Q: And the inhibition at 10 µM (SNRK; read-out: inhibition (10 μM))?
A: 43.7%

Q: What about the inhibition at 10 µM (CDK2; read-out: % inhibition (range)) of the same compound?
A: 50 to 75%

Q: What about the inhibition at 10 µM (CDK2; read-out: inhibition (10 μM)) of the same compound?
A: 68.5%

Q: What about the “% inhibition (range)” value (p38d, p38g; 10 μM) of the same compound?
A: 0.0%

Q: What about the “inhibition (10 μM)” value (p38d, p38g) of the same compound?
A: −11.0%

Q: And the inhibition at 10 µM (PKD2; read-out: % inhibition (range))?
A: 35 to 50%

Q: And the inhibition at 10 µM (PKD2; read-out: inhibition (10 μM))?
A: 46.2%

Q: What about the inhibition at 10 µM (ILK; read-out: % inhibition (range)) of the same compound?
A: 0%

Q: And the inhibition at 10 µM (ILK; read-out: inhibition (10 μM))?
A: -19%

Q: And the inhibition at 10 µM (RSK2 domain1; read-out: % inhibition (range))?
A: 50 to 75%

Q: What about the inhibition at 10 µM (RSK2 domain1; read-out: inhibition (10 μM)) of the same compound?
A: 69.9%

Q: What about the inhibition at 10 µM (CK1a; read-out: % inhibition (range)) of the same compound?
A: 75 to 90%

Q: What about the inhibition at 10 µM (CK1a; read-out: inhibition (10 μM)) of the same compound?
A: 84.6%

Q: What about the inhibition at 10 µM (SRPK2; read-out: % inhibition (range)) of the same compound?
A: 0%

Q: What about the inhibition at 10 µM (SRPK2; read-out: inhibition (10 μM)) of the same compound?
A: 18.9%

Q: And the inhibition at 10 µM (RSK1 domain1; read-out: % inhibition (range))?
A: 0%

Q: And the inhibition at 10 µM (RSK1 domain1; read-out: inhibition (10 μM))?
A: 24%

Q: And the inhibition at 10 µM (MASTL; read-out: % inhibition (range))?
A: 0%

Q: And the inhibition at 10 µM (MASTL; read-out: inhibition (10 μM))?
A: -18.4%

Q: And the inhibition at 10 µM (TLK2; read-out: % inhibition (range))?
A: 0%

Q: What about the inhibition at 10 µM (TLK2; read-out: inhibition (10 μM)) of the same compound?
A: 34%

Q: What about the inhibition at 10 µM (EphB2; read-out: % inhibition (range)) of the same compound?
A: 0%

Q: What about the inhibition at 10 µM (EphB2; read-out: inhibition (10 μM)) of the same compound?
A: -25%

Q: And the inhibition at 10 µM (STLK5; read-out: % inhibition (range))?
A: 0%

Q: What about the inhibition at 10 µM (STLK5; read-out: inhibition (10 μM)) of the same compound?
A: -14.9%

Q: What about the inhibition at 10 µM (HPK1; read-out: % inhibition (range)) of the same compound?
A: > 90%

Q: And the inhibition at 10 µM (HPK1; read-out: inhibition (10 μM))?
A: 97.5%

Q: What about the inhibition at 10 µM (RSK1 domain2; read-out: % inhibition (range)) of the same compound?
A: 0%

Q: And the inhibition at 10 µM (RSK1 domain2; read-out: inhibition (10 μM))?
A: 1%

Q: What about the inhibition at 10 µM (ACK; read-out: % inhibition (range)) of the same compound?
A: 0%

Q: What about the inhibition at 10 µM (ACK; read-out: inhibition (10 μM)) of the same compound?
A: -17.3%

Q: And the inhibition at 10 µM (PLK1; read-out: % inhibition (range))?
A: 0%

Q: What about the inhibition at 10 µM (PLK1; read-out: inhibition (10 μM)) of the same compound?
A: 14.2%

Q: And the inhibition at 10 µM (NEK7; read-out: % inhibition (range))?
A: 0%

Q: And the inhibition at 10 µM (NEK7; read-out: inhibition (10 μM))?
A: -39.5%

Q: What about the inhibition at 10 µM (CDK5; read-out: % inhibition (range)) of the same compound?
A: 75 to 90%

Q: And the inhibition at 10 µM (CDK5; read-out: inhibition (10 μM))?
A: 78.7%

Q: What about the inhibition at 10 µM (MAP2K3; read-out: % inhibition (range)) of the same compound?
A: 0%

Q: And the inhibition at 10 µM (MAP2K3; read-out: inhibition (10 μM))?
A: -34.2%

Q: And the inhibition at 10 µM (NuaK2; read-out: % inhibition (range))?
A: 50 to 75%

Q: And the inhibition at 10 µM (NuaK2; read-out: inhibition (10 μM))?
A: 58.7%

Q: And the inhibition at 10 µM (NEK4; read-out: % inhibition (range))?
A: 50 to 75%

Q: What about the inhibition at 10 µM (NEK4; read-out: inhibition (10 μM)) of the same compound?
A: 67%

Q: And the inhibition at 10 µM (PRPK; read-out: % inhibition (range))?
A: 0%

Q: And the inhibition at 10 µM (PRPK; read-out: inhibition (10 μM))?
A: -5%

Q: And the inhibition at 10 µM (PIK3C3)?
A: 51.2%

Q: And the inhibition at 10 µM (MPSK1)?
A: 55.2%

Q: And the inhibition at 10 µM (MAP2K6; read-out: % inhibition (range))?
A: 0%

Q: What about the inhibition at 10 µM (MAP2K6; read-out: inhibition (10 μM)) of the same compound?
A: 6.8%

Q: And the inhibition at 10 µM (JAK1 domain1; read-out: % inhibition (range))?
A: 0%

Q: What about the inhibition at 10 µM (JAK1 domain1; read-out: inhibition (10 μM)) of the same compound?
A: -44.3%

Q: And the “inhibition (10 μM)” value (MST4)?
A: 47.0%

Q: And the inhibition at 10 µM (GCN2 domain2; read-out: % inhibition (range))?
A: 0%

Q: And the inhibition at 10 µM (GCN2 domain2; read-out: inhibition (10 μM))?
A: 15.5%

Q: And the inhibition at 10 µM (PIP4K2A; read-out: % inhibition (range))?
A: 0%

Q: And the inhibition at 10 µM (PIP4K2A; read-out: inhibition (10 μM))?
A: 10.2%

Q: And the inhibition at 10 µM (PEK; read-out: % inhibition (range))?
A: > 100%

Q: And the inhibition at 10 µM (PEK; read-out: inhibition (10 μM))?
A: -100%
